Where two headings read alike, the source gives them in different places.
Target: recombinant human Nav1.7 (Homo sapiens (Human), UniProt Q15858)
Assay: FRET-based membrane potential assay, recombinant human sodium channel Nav1.7
Format: cell-based
In short: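 Channel activation used veratridine at its EC80, set by a dilution curve each experiment, together with Leiurus scorpion venom, added 3 min after compound. Membrane-potential ratio signals from FLIPR Tetra in HEPES-buffered HBSS were fitted to a four-parameter Hill equation for percent inhibition and IC50.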

[1] = HEK293 cells stably expressing recombinant human Nav1.7, veratridine + scorpion venom depolarization, read-out: FRET-Membrane Potential Nav1.7 IC50
[2] = read-out: FRET-Membrane Potential Nav1.7 IC50
[3] = FRET-Membrane Potential Nav1.7 IC50

recombinant human Nav1.7, sequence (Q15858 whole entry): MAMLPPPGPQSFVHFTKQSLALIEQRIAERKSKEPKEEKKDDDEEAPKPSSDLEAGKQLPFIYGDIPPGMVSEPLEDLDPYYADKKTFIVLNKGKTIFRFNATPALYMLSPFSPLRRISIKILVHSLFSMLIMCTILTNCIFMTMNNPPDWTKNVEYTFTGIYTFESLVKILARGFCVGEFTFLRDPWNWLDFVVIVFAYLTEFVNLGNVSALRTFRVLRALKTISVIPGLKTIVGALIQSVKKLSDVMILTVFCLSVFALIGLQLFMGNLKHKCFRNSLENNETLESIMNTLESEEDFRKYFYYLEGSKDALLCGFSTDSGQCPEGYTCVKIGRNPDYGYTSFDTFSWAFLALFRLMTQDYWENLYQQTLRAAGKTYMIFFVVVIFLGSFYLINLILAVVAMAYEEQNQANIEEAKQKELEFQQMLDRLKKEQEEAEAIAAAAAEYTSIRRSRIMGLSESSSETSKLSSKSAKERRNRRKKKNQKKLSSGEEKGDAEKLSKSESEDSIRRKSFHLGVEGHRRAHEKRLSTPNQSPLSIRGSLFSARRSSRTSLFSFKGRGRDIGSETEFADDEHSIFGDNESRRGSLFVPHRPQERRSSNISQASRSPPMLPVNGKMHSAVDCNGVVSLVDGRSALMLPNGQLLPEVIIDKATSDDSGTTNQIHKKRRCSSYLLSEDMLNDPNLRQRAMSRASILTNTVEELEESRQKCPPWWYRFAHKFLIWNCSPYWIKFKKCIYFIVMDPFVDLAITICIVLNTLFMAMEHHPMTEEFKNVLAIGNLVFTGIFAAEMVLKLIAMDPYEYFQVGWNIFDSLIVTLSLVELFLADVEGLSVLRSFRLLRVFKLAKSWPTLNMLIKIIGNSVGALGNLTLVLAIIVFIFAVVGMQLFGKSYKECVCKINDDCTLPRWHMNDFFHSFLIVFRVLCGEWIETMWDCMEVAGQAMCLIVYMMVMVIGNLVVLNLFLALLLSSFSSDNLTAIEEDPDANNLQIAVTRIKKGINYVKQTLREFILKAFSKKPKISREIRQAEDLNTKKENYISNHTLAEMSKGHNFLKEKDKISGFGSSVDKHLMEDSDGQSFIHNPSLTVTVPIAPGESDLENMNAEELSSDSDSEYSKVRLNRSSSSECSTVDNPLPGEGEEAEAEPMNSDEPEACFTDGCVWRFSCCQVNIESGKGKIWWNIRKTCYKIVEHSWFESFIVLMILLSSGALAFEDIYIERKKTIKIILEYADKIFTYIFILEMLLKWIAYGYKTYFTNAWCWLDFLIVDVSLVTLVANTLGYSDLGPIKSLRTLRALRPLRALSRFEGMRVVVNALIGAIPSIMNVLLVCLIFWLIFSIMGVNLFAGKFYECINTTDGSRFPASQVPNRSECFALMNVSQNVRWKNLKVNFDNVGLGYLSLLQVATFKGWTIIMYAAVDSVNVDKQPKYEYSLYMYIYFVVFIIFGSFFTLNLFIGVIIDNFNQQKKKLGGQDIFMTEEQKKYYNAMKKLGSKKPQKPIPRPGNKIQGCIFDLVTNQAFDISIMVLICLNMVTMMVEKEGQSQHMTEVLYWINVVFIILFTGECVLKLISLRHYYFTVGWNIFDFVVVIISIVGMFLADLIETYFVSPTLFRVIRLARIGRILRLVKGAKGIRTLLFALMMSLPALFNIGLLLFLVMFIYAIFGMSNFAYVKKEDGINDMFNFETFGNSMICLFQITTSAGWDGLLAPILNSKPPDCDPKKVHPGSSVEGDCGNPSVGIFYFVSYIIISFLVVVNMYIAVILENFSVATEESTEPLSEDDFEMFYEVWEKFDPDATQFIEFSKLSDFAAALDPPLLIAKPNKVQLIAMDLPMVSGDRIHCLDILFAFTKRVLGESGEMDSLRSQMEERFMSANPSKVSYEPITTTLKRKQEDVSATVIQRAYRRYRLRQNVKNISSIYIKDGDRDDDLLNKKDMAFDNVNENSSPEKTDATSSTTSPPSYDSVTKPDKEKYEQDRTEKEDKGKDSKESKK

SMILES | IC50 [1] | other results
O=C(c1ccc2cc(Oc3ccc(C(F)(F)F)cn3)ccc2n1)N1CCCC(O)CC1 (centres unmarked) [Example 284, (4-hydroxyazepan-1-yl)(6-{[5-(trifluoromethyl)pyridin-2-yl]oxy}quinolin-2-yl)methanone] | 8.59 µM | 
O=C(NC[C@H]1CCCO1)c1ccc2cc(Oc3ccc(C(F)(F)F)cn3)ccc2n1 [Example 409, N-[(2R)-tetrahydrofuran-2-ylmethyl]-6-{[5-(trifluoromethyl)pyridin-2-yl]oxy}quinoline-2-carboxamide] | 0.403 µM | 
COC1CN(C(=O)c2ccc3cc(Oc4ccc(C(F)(F)F)cn4)ccc3n2)C1 [Example 396, (3-methoxyazetidin-1-yl)(6-{[5-(trifluoromethyl)pyridin-2-yl]oxy}quinolin-2-yl)methanone] | 1.94 µM | 
O=C(c1ccc2cc(Oc3ccc(C(F)(F)F)cn3)ccc2n1)N1CCc2ccccc2C1 [Example 253, 3,4-dihydroisoquinolin-2(1H)-yl(6-{[5-(trifluoromethyl)pyridin-2-yl]oxy}quinolin-2-yl)methanone] | > 20 µM | 
CC1[C@@H](O)[C@@H](O)C(C)N1C(=O)c1ccc2cc(Oc3ccc(C(F)(F)F)cn3)ccc2n1 (mixture of isomers) [Example 323, rac-[(3R,4S)-3,4-dihydroxy-2,5-dimethylpyrrolidin-1-yl](6-{[5-(trifluoromethyl)pyridin-2-yl]oxy}quinolin-2-yl)methanone] | > 20 µM | 
O=C(NCC(=O)N1C[C@@H](O)[C@H](O)C1)c1ccc2cc(Oc3ccc(C(F)(F)F)cn3)ccc2n1 [Example 563, N-{2-[(3R,4R)-3,4-dihydroxypyrrolidin-1-yl]-2-oxoethyl}-6-{[5-(trifluoromethyl)pyridin-2-yl]oxy}quinoline-2-carboxamide] | > 20 µM | 
CC(O)C(C)NC(=O)c1ccc2cc(Oc3ccc(C#N)cc3)ccc2n1 (centres unmarked) [Example 134, 6-(4-cyanophenoxy)-N-(3-hydroxybutan-2-yl)quinoline-2-carboxamide] |  | IC50 [2]: 2.32 µM
C[C@@H]1CN(C(=O)c2ccc3cc(Oc4ccc(C(F)(F)F)cn4)ccc3n2)C[C@H]1O (relative stereo) [Example 306, [trans-3-hydroxy-4-methylpyrrolidin-1-yl](6-{[5-(trifluoromethyl)pyridin-2-yl]oxy}quinolin-2-yl)methanone] | 14.8 µM | 
O=C(NCCN1CCOC1=O)c1ccc2cc(Oc3ccc(C(F)(F)F)cn3)ccc2n1 [Example 605, N-[2-(2-oxo-1,3-oxazolidin-3-yl)ethyl]-6-{[5-(trifluoromethyl)pyridin-2-yl]oxy}quinoline-2-carboxamide] | 2.88 µM | 
O=C(c1ccc2cc(Oc3ccc(C(F)(F)F)cn3)ccc2n1)N1CC[C@@H](O)[C@H](F)C1 (relative stereo) [Example 195, [trans-3-fluoro-4-hydroxypiperidin-1-yl](6-{[5-(trifluoromethyl)pyridin-2-yl]oxy}quinolin-2-yl)methanone] |  | IC50 [3]: 7.6 µM
CCNS(=O)(=O)N1CCN(C(=O)c2ccc3cc(Oc4ccc(C(F)(F)F)cn4)ccc3n2)CC1 [Example 236, N-ethyl-4-[(6-{[5-(trifluoromethyl)pyridin-2-yl]oxy}quinolin-2-yl)carbonyl]piperazine-1-sulfonamide] |  | IC50 [2]: 1.01 µM
CC(C)(O)CCNC(=O)c1ccc2cc(Oc3ccc(C(F)(F)F)cn3)ccc2n1 [Example 334, N-(3-hydroxy-3-methylbutyl)-6-{[5-(trifluoromethyl)pyridin-2-yl]oxy}quinoline-2-carboxamide] | 3.44 µM | 
O=C(c1ccc2cc(Oc3ccc(C(F)(F)F)cn3)ccc2n1)N1CCNC[C@H]1CO [Example 234, [(2S)-2-(hydroxymethyl)piperazin-1-yl](6-{[5-(trifluoromethyl)pyridin-2-yl]oxy}quinolin-2-yl)methanone] | 2.87 µM | 
O=C(c1ccc2cc(Oc3ccc(C(F)(F)F)cn3)ccc2n1)N1CC(F)(F)C[C@H]1CO [Example 497, [(2S)-4,4-difluoro-2-(hydroxymethyl)pyrrolidin-1-yl](6-{[5-(trifluoromethyl)pyridin-2-yl]oxy}quinolin-2-yl)methanone] | 3.43 µM | 
O=C(c1ccc2cc(Oc3ccc(C(F)(F)F)cn3)ccc2n1)N1CCN2C[C@@H](F)C[C@H]2C1 [Example 359, [(7S,8aS)-7-fluorohexahydropyrrolo[1,2-a]pyrazin-2(1H)-yl](6-{[5-(trifluoromethyl)pyridin-2-yl]oxy}quinolin-2-yl)methanone] |  | IC50 [2]: 4.71 µM
O=C(c1ccc2cc(Oc3ccc(C(F)(F)F)nc3)ccc2n1)N1CCN[C@@H](CO)C1 [Example 544, [(3R)-3-(hydroxymethyl)piperazin-1-yl](6-{[6-(trifluoromethyl)pyridin-3-yl]oxy}quinolin-2-yl)methanone] | 3.45 µM | 
N#Cc1ccc(Oc2ccc3nc(C(=O)N4CCCCCC4)ccc3c2)cc1 [Example 106, 4-{[2-(azepan-1-ylcarbonyl)quinolin-6-yl]oxy}benzonitrile] | 2.42 µM | 
COCCN(CCOC)C(=O)c1ccc2cc(Oc3ccc(C(F)(F)F)cn3)ccc2n1 [Example 379, N,N-bis(2-methoxyethyl)-6-{[5-(trifluoromethyl)pyridin-2-yl]oxy}quinoline-2-carboxamide] | 3.39 µM | 

SMILES | IC50 [1] | other results
O=C(c1ccc2cc(Oc3ccc(C(F)(F)F)nc3)ccc2n1)N1C[C@@H](O)[C@@H](O)C1 [Example 546, [cis-3,4-dihydroxypyrrolidin-1-yl](6-{[6-(trifluoromethyl)pyridin-3-yl]oxy}quinolin-2-yl)methanone] |  | IC50 [3]: 10.1 µM
O=C(c1ccc2cc(Oc3ccc(C(F)(F)F)cn3)ccc2n1)N1CC[C@H](O)[C@H](O)C1 (relative stereo) [Example 350, [cis-3,4-dihydroxypiperidin-1-yl](6-{[5-(trifluoromethyl)pyridin-2-yl]oxy}quinolin-2-yl)methanone] | > 20 µM | 
O=C(N[C@@H]1CC[C@H]2CN(Cc3ccccc3)C[C@H]21)c1ccc2cc(Oc3ccc(C(F)(F)F)cn3)ccc2n1 [Example 230, N-[(3aS,4R,6aR)-2-benzyloctahydrocyclopenta[c]pyrrol-4-yl]-6-{[5-(trifluoromethyl)pyridin-2-yl]oxy}quinoline-2-carboxamide] |  | IC50 [2]: 0.259 µM
O=C1CC(NC(=O)c2ccc3cc(Oc4ccc(C(F)(F)F)nc4)ccc3n2)C1 [Example 556, N-(3-oxocyclobutyl)-6-{[6-(trifluoromethyl)pyridin-3-yl]oxy}quinoline-2-carboxamide] |  | IC50 [2]: 2.81 µM
O=C(NCC(O)C(F)(F)F)c1ccc2cc(Oc3ccc(C(F)(F)F)nc3)ccc2n1 (centres unmarked) [Example 551, N-(3,3,3-trifluoro-2-hydroxypropyl)-6-{[6-(trifluoromethyl)pyridin-3-yl]oxy}quinoline-2-carboxamide] |  | IC50 [2]: 2.77 µM
O=C(NC1CCS(=O)(=O)C1)c1ccc2cc(Oc3ncc(C(F)(F)F)cn3)ccc2n1 (centres unmarked) [Example 155, N-(1,1-dioxidotetrahydrothiophen-3-yl)-6-{[5-(trifluoromethyl)pyrimidin-2-yl]oxy}quinoline-2-carboxamide] |  | IC50 [2]: 5.38 µM
O=C(NC1CS(=O)(=O)C1)c1ccc2cc(Oc3ccc(C(F)(F)F)cn3)ccc2n1 [Example 504, N-(1,1-dioxidothietan-3-yl)-6-{[5-(trifluoromethyl)pyridin-2-yl]oxy}quinoline-2-carboxamide] | 0.593 µM | 
O=C(c1ccc2cc(Oc3ccc(C(F)(F)F)cn3)ccc2n1)N1C[C@H](F)C[C@@H]1c1cc(F)ccc1F [Example 180, [(2R,4R)-2-(2,5-difluorophenyl)-4-fluoropyrrolidin-1-yl](6-{[5-(trifluoromethyl)pyridin-2-yl]oxy}quinolin-2-yl)methanone] | 0.675 µM | 
CCN(CC)C(=O)CNC(=O)c1ccc2cc(Oc3ccc(C(F)(F)F)cn3)ccc2n1 [Example 446, N-[2-(diethylamino)-2-oxoethyl]-6-{[5-(trifluoromethyl)pyridin-2-yl]oxy}quinoline-2-carboxamide] |  | IC50 [2]: 0.166 µM
N#Cc1ccc(Oc2ccc3nc(C(=O)N4CCS(=O)(=O)CC4)ccc3c2)cc1 [Example 148, 4-({2[(1,1-dioxidothiomorpholin-4-yl)carbonyl]quinolin-6-yl}oxy)benzonitrile] | 12.1 µM | 
O=C(NC1CCS(=O)(=O)CC1)c1ccc2cc(Oc3ccc(C(F)(F)F)nc3)ccc2n1 [Example 535, N-(1,1-dioxidotetrahydro-2H-thiopyran-4-yl)-6-{[6-(trifluoromethyl)pyridin-3-yl]oxy}quinoline-2-carboxamide] | > 20 µM | 
N#Cc1ccc(Oc2ccc3nc(C(=O)NCCc4cccs4)ccc3c2)cc1 [Example 93, 6-(4-cyanophenoxy)-N-[2-(2-thienyl)ethyl]quinoline-2-carboxamide] | 1.55 µM | 
COC1CN(C(=O)CNC(=O)c2ccc3cc(Oc4ccc(C(F)(F)F)cn4)ccc3n2)C1 [Example 569, N-[2-(3-methoxyazetidin-1-yl)-2-oxoethyl]-6-{[5-(trifluoromethyl)pyridin-2-yl]oxy}quinoline-2-carboxamide] | 1.21 µM | 
O=C(NCC1(O)CC1)c1ccc2cc(Oc3ccc(C(F)(F)F)cn3)ccc2n1 [Example 369, N-[(1-hydroxycyclopropyl)methyl]-6-{[5-(trifluoromethyl)pyridin-2-yl]oxy}quinoline-2-carboxamide] | 15.2 µM | 
Cc1ccc(CNC(=O)c2ccc3cc(Oc4ccc(C#N)cc4)ccc3n2)o1 [Example 99, 6-(4-cyanophenoxy)-N-[(5-methyl-2-furyl)methyl]quinoline-2-carboxamide] | 5.05 µM | 
O=C(c1ccc2cc(Oc3ccc(C(F)(F)F)cn3)ccc2n1)N1CCC(N2C[C@@H]3C[C@H]2CO3)CC1 [Example 377, {4-[(1S,4S)-2-oxa-5-azabicyclo[2.2.1]hept-5-yl]piperidin-1-yl}(6-{[5-(trifluoromethyl)pyridin-2-yl]oxy}quinolin-2-yl)methanone] | 3.32 µM | 
O=C1NCCN2CCN(C(=O)c3ccc4cc(Oc5ccc(C(F)(F)F)cn5)ccc4n3)CC12 (centres unmarked) [Example 169, 8-[(6-{[5-(trifluoromethyl)pyridin-2-yl]oxy}quinolin-2-yl)carbonyl]hexahydro-2H-pyrazino[1,2-a]pyrazin-1(6H)-one] | 17.2 µM | 

Source: patent US9452986B2, “6-heteroaryloxy- or 6-aryloxy-quinoline-2-carboxamides and method of use” (AbbVie Inc., priority 2014, dated 2016)
